Data on 26 compounds can be found in patent US20240382482A1, “PLASMA KALLIKREIN INHIBITORS” (TAKEDA PHARMACEUTICAL COMPANY LIMITED, priority 2021, published 2024).

Where a name gives a salt, the structure may show the parent alone.

In this experiment the target is human activated kallikrein enzyme (Homo sapiens, UniProt P03952). Nature of the experiment: Inhibition of human activated kallikrein enzyme, fluorogenic peptide substrate assay (500 pM enzyme format). It is filed as biochemical. As to conditions: 500 pM activated kallikrein, 300 μM PFR-AMC substrate, 30 min preincubation, 10 min reaction, room temperature; read-out: Primary Dose Response Assay: Average EC50. As for the experimental part: Compounds were evaluated for inhibition of the human activated kallikrein enzyme in two formats of an assay employing a fluorogenic peptide substrate. In one assay format, the concentrations of reagents were as follows: 20 mM Tris pH 7.5, 1 mM EDTA, 150 mM sodium chloride, 0.1% PEG-400, 0.1% Triton X-100, 500 pM activated kallikrein enzyme, 300 μM Pro-Phe-Arg-7-amido-4-methylcoumarin (PFR-AMC) substrate. Prior to reaction initiation with substrate, enzyme and inhibitors were preincubated for 30 min at room temperature. After initiation with substrate, reactions were incubated for 10 min at room temperature and fluorescence emission at 460 nm from 380 nm excitation measured with a microplate reader. In another assay format, the concentrations of reagents were as follows: 20 mM Tris pH 7.5, 1 mM EDTA, 150 mM sodium chloride, 0.1% PEG-400, 0.1% Triton X-100, 5 pM activated kallikrein enzyme, 300 uM PFR-AMC substrate. Prior to reaction initiation with substrate, enzyme and inhibitors were preincubated for 30 min at room temperature. After initiation with substrate, reactions were incubated for 18 hr at room temperature and fluorescence emission at 460 nm from 380 nm excitation measured with a microplate reader.
Sequence of human activated kallikrein enzyme (P03952 391-638 limits assumed): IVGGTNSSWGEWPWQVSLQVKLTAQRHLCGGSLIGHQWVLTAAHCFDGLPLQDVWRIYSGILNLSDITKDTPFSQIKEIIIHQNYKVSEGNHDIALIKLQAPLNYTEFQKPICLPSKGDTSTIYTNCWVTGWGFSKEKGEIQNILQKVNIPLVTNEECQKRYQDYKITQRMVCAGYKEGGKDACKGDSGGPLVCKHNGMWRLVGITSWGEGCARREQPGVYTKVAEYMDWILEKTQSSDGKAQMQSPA
Sequence of human activated kallikrein enzyme (P03952 20-390 partner limits assumed): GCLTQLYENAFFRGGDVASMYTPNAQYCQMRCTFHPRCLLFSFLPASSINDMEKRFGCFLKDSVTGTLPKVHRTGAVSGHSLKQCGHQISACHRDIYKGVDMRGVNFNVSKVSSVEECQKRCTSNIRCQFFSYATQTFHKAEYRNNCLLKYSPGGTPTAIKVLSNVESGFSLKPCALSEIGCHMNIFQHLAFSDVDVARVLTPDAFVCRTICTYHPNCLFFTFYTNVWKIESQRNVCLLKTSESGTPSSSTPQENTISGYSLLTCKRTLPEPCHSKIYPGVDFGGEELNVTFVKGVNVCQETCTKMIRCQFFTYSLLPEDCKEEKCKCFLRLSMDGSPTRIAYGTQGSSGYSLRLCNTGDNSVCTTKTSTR
Table 1 provides the results of the assay in the format with 500 pM activated kallikrein assay. For the compounds listed in Table 1, the EC50 values are reported according to the following ranges: A≤5.0 nM; 5.0 nM<B≤50 nM; 50 nM<C≤500 nM; 500 nM<D≤9000 nM; 9000 nM<E.

The term EC50 denotes the concentration that produces a half-maximal response. With `O=C(Cn1cnc2ccc(Cl)cc21)Nc1cc(NCc2cn3cc(C4CC4)ccc3n2)ccn1` [Example 28, 2-(6-chloro-1H-benzo[d]imidazol-1-yl)-N-(4-(((6-cyclopropylimidazo[1,2-a]pyridin-2-yl)methyl)amino)pyridin-2-yl)acetamide], the EC50 lay within 500 to 9000 nM.
For `CCCCCCOC(=O)NC(=N)c1cc(C)c(CNc2cc(OCc3cn4cc(C5CC5)ccc4n3)ncn2)c(C)c1` [Example 76, hexyl ((4-(((6-((6-cyclopropylimidazo[1,2-a]pyridin-2-yl)methoxy)pyrimidin-4-yl)amino)methyl)-3,5-dimethylphenyl)(imino)methyl)carbamate], the concentration for a half-maximal effect (EC50) lay in the range of 50 to 500 nM.
Turning to `C[C@H](C(=O)Nc1cc(NCc2cn3cc(C4CC4)ccc3n2)ncn1)[C@@H](C)c1cccc(Cl)c1` [Example 133, (2S,3R)-3-(3-chlorophenyl)-N-(6-(((6-cyclopropylimidazo[1,2-a]pyridin-2-yl)methyl)amino)pyrimidin-4-yl)-2-methylbutanamide], the EC50 was more than 9000 nM.
Under `O=C(Nc1cc(NCc2cn3cc(C4CC4)ccc3n2)ccn1)C1CCc2ccc(Cl)cc2C1` (centres unmarked) [Example 120, 7-chloro-N-(4-(((6-cyclopropylimidazo[1,2-a]pyridin-2-yl)methyl)amino)pyridin-2-yl)-1,2,3,4-tetrahydronaphthalene-2-carboxamide] stands 500 to 9000 nM; under `NC(=O)Cc1cc2c(Cl)cn(-c3cc(NCc4cn5cc(C6CC6)ccc5n4)ccn3)c2cc1F` [Example 127, 2-(3-chloro-1-(4-(((6-cyclopropylimidazo[1,2-a]pyridin-2-yl)methyl)amino)pyridin-2-yl)-6-fluoro-1H-indol-5-yl)acetamide], 500 to 9000 nM; under `O=C(Nc1cc(NCc2cn3cc(C4CC4)ccc3n2)ccn1)c1ccc2ccc(Cl)cc2c1` [Example 118, 7-chloro-N-(4-(((6-cyclopropylimidazo[1,2-a]pyridin-2-yl)methyl)amino)pyridin-2-yl)-2-naphthamide], 50 to 500 nM.
Take `O=C(Cn1ccc2ccc(Cl)cc21)Nc1cc(NCc2cn3cc(C4CC4)ccc3n2)ccn1` [Example 115, 2-(6-chloro-1H-indol-1-yl)-N-(4-(((6-cyclopropylimidazo[1,2-a]pyridin-2-yl)methyl)amino)pyridin-2-yl)acetamide]: the EC50 was 500 to 9000 nM.
Take `O=C(Cc1ncn2ccc(Cl)cc12)Nc1cc(OCc2cn3cc(C4CC4)ccc3n2)ccn1` [Example 23, 2-(7-chloroimidazo[1,5-a]pyridin-1-yl)-N-(4-((6-cyclopropylimidazo[1,2-a]pyridin-2-yl)methoxy)pyridin-2-yl)acetamide]: the EC50 fell in the range of 5 to 50 nM.
On to `O[C@H]1C[C@H](c2cn3cc(C4CC4)ccc3n2)N(c2cc(NCc3cc4c(Cl)c[nH]c4cc3F)ncn2)C1` [Example 139, (3S,5R)-1-(6-(((3-chloro-6-fluoro-1H-indol-5-yl)methyl)amino)pyrimidin-4-yl)-5-(6-cyclopropylimidazo[1,2-a]pyridin-2-yl)pyrrolidin-3-ol], for which the EC50 fell in the range of 50 to 500 nM.
As to `O=C(Cc1ncn2ccc(Cl)cc12)Nc1cncnc1NCc1cn2cc(C3CC3)ccc2n1` [Example 42, 2-(7-chloroimidazo[1,5-a]pyridin-1-yl)-N-(4-(((6-cyclopropylimidazo[1,2-a]pyridin-2-yl)methyl)amino)pyrimidin-5-yl)acetamide], the EC50 was in the range of 50 to 500 nM.
Under `O=C(Cc1ncn2ccc(Cl)cc12)Nc1cc(C(F)(F)c2cn3cc(C4CC4)ccc3n2)ncn1` [Example 60, 2-(7-chloroimidazo[1,5-a]pyridin-1-yl)-N-(6-((6-cyclopropylimidazo[1,2-a]pyridin-2-yl)difluoromethyl)pyrimidin-4-yl)acetamide formic acid salt] stands 50 to 500 nM.
In the case of `O=C(CCc1cccc(Cl)c1)Nc1cc(NCc2cn3cc(C4CC4)ccc3n2)ncn1` [Example 8, 3-(3-chlorophenyl)-N-(6-(((6-cyclopropylimidazo[1,2-a]pyridin-2-yl)methyl)amino)pyrimidin-4-yl)propanamide], the EC50 was 500 to 9000 nM.
Take `COc1ccnc(CC(=O)Nc2cc(NCc3cn4cc(C5CC5)cc(N5CCCC5=O)c4n3)ccn2)c1F` [Example 24, N-(4-(((6-cyclopropyl-8-(2-oxopyrrolidin-1-yl)imidazo[1,2-a]pyridin-2-yl)methyl)amino)pyridin-2-yl)-2-(3-fluoro-4-methoxypyridin-2-yl)acetamide]: the EC50 fell in the range of 5 to 50 nM.
The value for `Nc1nccc2c1CC(C(=O)Nc1cc(NCc3cn4cc(C5CC5)ccc4n3)ccn1)C2` (centres unmarked) [Example 29, 1-amino-N-(4-(((6-cyclopropylimidazo[1,2-a]pyridin-2-yl)methyl)amino)pyridin-2-yl)-6,7-dihydro-5H-cyclopenta[c]pyridine-6-carboxamide] was 500 to 9000 nM; that for `O=C(Cc1ncn2ccc(Cl)cc12)Nc1cc(NCc2cn3c(F)c(C4CC4)ccc3n2)ncn1` [Example 46, 2-(7-chloroimidazo[1,5-a]pyridin-1-yl)-N-(6-(((6-cyclopropyl-5-fluoro-imidazo[1,2-a]pyridin-2-yl)methyl)amino)pyrimidin-4-yl)acetamide] was not above 5 nM; that for `O=C(Cc1ncn2ccc(Cl)cc12)Nc1cncnc1NCc1cn2cc(C3CC3)cc(CO)c2n1` [Example 41, 2-(7-chloroimidazo[1,5-a]pyridin-1-yl)-N-(4-(((6-cyclopropyl-8-(hydroxymethyl)imidazo[1,2-a]pyridin-2-yl)methyl)amino)pyrimidin-5-yl)acetamide] was 5 to 50 nM.
Take `COc1ccc(-n2cnnn2)c(CNc2cc(C(F)(F)c3cn4cc(C5CC5)ccc4n3)ncn2)c1F` [Example 62, 6-((6-cyclopropylimidazo[1,2-a]pyridin-2-yl)difluoromethyl)-N-(2-fluoro-3-methoxy-6-(1H-tetrazol-1-yl)benzyl)pyrimidin-4-amine]: the EC50 was in the range of 500 to 9000 nM.
The value for `Cc1cc(C(=N)N)cc(C)c1CNc1cc(OCc2cn3cc(C4CC4)ccc3n2)nc(-c2nn[nH]n2)n1` [Example 91, 4-(((6-((6-cyclopropylimidazo[1,2-a]pyridin-2-yl)methoxy)-2-(2H-tetrazol-5-yl)pyrimidin-4-yl)amino)methyl)-3,5-dimethylbenzimidamide] was not above 5 nM; that for `O=C(Cc1ncn2ccc(Cl)cc12)Nc1cc(NCc2cn3cc(C4CC4)cc(C4(F)COC4)c3n2)ncn1` [Example 19, 2-(7-chloroimidazo[1,5-a]pyridin-1-yl)-N-(6-(((6-cyclopropyl-8-(3-fluorooxetan-3-yl)imidazo[1,2-a]pyridin-2-yl)methyl)amino)pyrimidin-4-yl)acetamide] was not above 5 nM; that for `O=C(Cc1ncn2ccc(Cl)cc12)Nc1cc(OCc2cn3cc(C4CC4)ccc3n2)ncn1` [Example 33, 2-(7-chloroimidazo[1,5-a]pyridin-1-yl)-N-(6-((6-cyclopropylimidazo[1,2-a]pyridin-2-yl)methoxy)pyrimidin-4-yl)acetamide] was 5 to 50 nM.
Take `CC(Cc1cccc(Cl)c1)C(=O)Nc1cc(NCc2cn3cc(C4CC4)ccc3n2)ncn1` (centres unmarked) [Example 7, 3-(3-chlorophenyl)-N-(6-(((6-cyclopropylimidazo[1,2-a]pyridin-2-yl)methyl)amino)pyrimidin-4-yl)-2-methylpropanamide]: the EC50 lay in the range of 500 to 9000 nM.
The value for `O=C(Cc1ncn2ccc(Cl)cc12)Nc1ccnc(NCc2cn3cc(C4CC4)ccc3n2)n1` [Example 16, 2-(7-chloroimidazo[1,5-a]pyridin-1-yl)-N-(2-(((6-cyclopropylimidazo[1,2-a]pyridin-2-yl)methyl)amino)pyrimidin-4-yl)acetamide] was not above 5 nM; that for `Clc1cccc([C@H]2C[C@@H]2CNc2cc(NCc3cn4cc(C5CC5)ccc4n3)ncn2)c1` [Example 138, N^4-(((1S,2S)-2-(3-chlorophenyl)cyclopropyl)methyl)-N^6-((6-cyclopropylimidazo[1,2-a]pyridin-2-yl)methyl)pyrimidine-4,6-diamine] was 500 to 9000 nM.
Under `N#Cc1cc(C2CC2)cn2cc(CNc3cc(NC(=O)Cc4ncn5ccc(Cl)cc45)ncn3)nc12` [Example 13, 2-(7-chloroimidazo[1,5-a]pyridin-1-yl)-N-(6-(((8-cyano-6-cyclopropylimidazo[1,2-a]pyridin-2-yl)methyl)amino)pyrimidin-4-yl)acetamide] stands not above 5 nM; under `COc1ccc(N)c(CC(=O)Nc2cc(NCc3cn4cc(C5CC5)ccc4n3)ncn2)c1F` [Example 36, 2-(6-amino-2-fluoro-3-methoxyphenyl)-N-(6-(((6-cyclopropylimidazo[1,2-a]pyridin-2-yl)methyl)amino)pyrimidin-4-yl)acetamide], 500 to 9000 nM.
For `O=C(Cc1cc(Cl)ccc1-n1cnnn1)Nc1cc(NCc2cn3cc(C4CC4)ccc3n2)ncn1` [Example 35, 2-(5-chloro-2-(1H-tetrazol-1-yl)phenyl)-N-(6-(((6-cyclopropylimidazo[1,2-a]pyridin-2-yl)methyl)amino)pyrimidin-4-yl)acetamide], the EC50 is 5 to 50 nM.
